Measured values: US9150577B2, “Heterocyclic compounds containing an indole core” (Boehringer Ingelheim International GmbH, priority 2009, dated 2015)

Columns and labels:
[1] = tested on: NHE1; conditions: cited from earlier work
[2] = target: Human RSK2 (Homo sapiens (Human), UniProt P51812); experiment: Human RSK2 assay (Kinase Glo Plus, residual ATP); assay type: biochemical;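 also: recombinant human RSK2 phosphorylating a substrate peptide, 90 min at 28 °C, leftover ATP read by luminescence, RLU scaled between no-kinase background and uninhibited kinase controls, 4-parameter fit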
Sequence of Human RSK2 (P51812 whole entry): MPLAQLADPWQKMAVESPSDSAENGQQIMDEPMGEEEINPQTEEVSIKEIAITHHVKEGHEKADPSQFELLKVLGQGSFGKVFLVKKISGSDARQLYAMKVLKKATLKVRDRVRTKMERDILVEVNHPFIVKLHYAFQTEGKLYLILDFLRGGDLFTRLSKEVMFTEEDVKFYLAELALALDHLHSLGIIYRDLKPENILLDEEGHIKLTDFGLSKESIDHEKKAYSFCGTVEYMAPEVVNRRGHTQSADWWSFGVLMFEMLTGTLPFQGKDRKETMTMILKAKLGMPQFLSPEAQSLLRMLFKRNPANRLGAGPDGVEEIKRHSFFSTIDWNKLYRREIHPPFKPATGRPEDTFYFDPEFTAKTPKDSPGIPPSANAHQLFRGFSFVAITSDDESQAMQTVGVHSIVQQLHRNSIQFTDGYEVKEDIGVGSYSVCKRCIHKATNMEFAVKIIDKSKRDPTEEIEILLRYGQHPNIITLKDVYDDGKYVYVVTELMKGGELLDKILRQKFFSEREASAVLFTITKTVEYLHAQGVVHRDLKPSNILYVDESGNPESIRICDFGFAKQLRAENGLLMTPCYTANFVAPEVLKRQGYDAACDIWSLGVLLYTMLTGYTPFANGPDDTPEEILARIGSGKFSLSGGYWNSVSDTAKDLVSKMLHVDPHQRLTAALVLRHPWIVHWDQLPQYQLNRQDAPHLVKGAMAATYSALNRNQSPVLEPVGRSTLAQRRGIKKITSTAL

Row | IC50 [2] | Compound | also measured
1 | – | Cc1ccc(-c2c(C(=O)CF)n(CCCO)c3ncnc(N)c23)cc1 [fmk] | basal NHE1 activity ([1]; basal): without affecting basal activity; phosphorylation of NHE1 [1]: inhibit; phenylephrine-induced enhanced NHE1 activity ([1]; phenylephrine-induced): inhibit
2 | 570 nM | Cc1cc(NC(=O)c2ccc3cc4n(c3c2)[C@@H](C)[C@H](C)CNC4=O)no1 (relative stereo) [Example 169, Trans-4,5-dimethyl-N-(5-methyl-1,2-oxazol-3-yl)-1-oxo-2,3,4,5-tetrahydro-1H-[1,4]diazepino[1,2-a]indole-8-carboxamide] | –
3 | 3300 nM | O=C(Nc1cccnc1)c1ccc2cc3n(c2c1)CC1(CCC1)CNC3=O [Example 153, 1′-oxo-N-(pyridin-3-yl)-2′,3′-dihydro-1′H-spiro[cyclobutane-1,4′-[1,4]diazepino[1,2-a]indole]-8′-carboxamide] | –
4 | 96 nM | COc1ccnc(NC(=O)c2ccc3cc4n(c3c2)CCCNC4=O)c1 [Example 206, N-(4-methoxypyridin-2-yl)-1-oxo-2,3,4,5-tetrahydro-1H-[1,4]diazepino[1,2-a]indole-8-carboxamide] | –
5 | 220 nM | O=C(Nc1ccn(Cc2ccc(F)cc2)n1)c1ccc2cc3n(c2c1)CCCNC3=O [Example 12, N-[1-(4-fluorobenzyl)-1H-pyrazol-3-yl]-1-oxo-2,3,4,5-tetrahydro-1H-[1,4]diazepino[1,2-a]indole-8-carboxamide] | –
6 | 27 nM | O=C(Nc1cnn(C2CCOC2)c1)c1ccc2cc3n(c2c1)CCCNC3=O (stereo not shown) [Example 26, 1-oxo-N-[1-(tetrahydrofuran-3-yl)-1H-pyrazol-4-yl]-2,3,4,5-tetrahydro-1H-[1,4]diazepino[1,2-a]indole-8-carboxamide] | –
7 | 30 nM | O=C(Nc1cc(-c2cccnc2)no1)c1ccc2cc3n(c2c1)CCCNC3=O [Example 210, 1-oxo-N-[3-(pyridin-3-yl)-1,2-oxazol-5-yl]-2,3,4,5-tetrahydro-1H-[1,4]diazepino[1,2-a]indole-8-carboxamide] | –
8 | 84 nM | O=C(Nc1cnn(CCN2CCOCC2)c1)c1ccc2cc3n(c2c1)CCCNC3=O [Example 37, N-{1-[2-(morpholin-4-yl)ethyl]-1H-pyrazol-4-yl}-1-oxo-2,3,4,5-tetrahydro-1H-[1,4]diazepino[1,2-a]indole-8-carboxamide] | –
